How the values were obtained:
Assay type in all cases: cell-based
[1] = target: T1, CCDC6-RET-BaF3 (Homo sapiens, UniProt P07949); assay: Growth inhibition of CCDC6-RET-BaF3 cells stably transfected with kinase (MTS); details: 48 h, read-out: CCDC6-RET (IC50/nM)
T1 construct: fused on or other part: Q16204 (Coiled-coil domain-containing protein 6)
In short: (§1)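 IC50 derived from growth inhibition by MTS absorbance at 490 nm after 48 h compound exposure (top 10 μM, 1:3 steps, 8 points, 0.1% DMSO) of 2×10^4 RET-fusion (CCDC6-RET, KIF5B-RET) or wild-type BaF3 cells per well, in triplicate.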

[2] = target: T2, KIF5B-RET-BaF3 (Homo sapiens, UniProt P07949); assay: Growth inhibition of KIF5B-RET-BaF3 cells stably transfected with kinase (MTS); details: 48 h, read-out: KIF5B-RET (IC50/nM)
T2 construct: fused on or other part: P33176 (Kinesin-1 heavy chain)
In short: as §1

[3] = system: wild-type BaF3; assay: Growth inhibition of wild-type BaF3 cells, broad-spectrum toxicity (MTS); details: Mus musculus, 48 h, read-out: WT Ba/F3 (IC50/nM)
Method: Growth inhibitory activity of compounds on cell lines stably transfected with kinase
The activity of compounds against kinase RET is evaluated by their effect of inhibiting growth of cell lines stably transfected with kinase CCDC6-RET-BaF3, KIF5B-RET-BaF3, and wild-type BaF3 (Proc. Natl. Acad. Sci. USA., 2006, 103, 3153-8.). The growth of the cell lines stably transfected with kinase CCDC6-RET-BaF3, KIF5B-RET-BaF3 depends on their kinase activity. If a compound can inhibit the activity of the kinase RET per se or the activity of the RET signaling pathway, the compound can inhibit the growth of BaF3 cells stably transfected with kinase. […] Therefore, a larger ratio between IC50 of a compound to wild-type BaF3 and IC50 of the compound to the cell lines stably transfected with kinase CCDC6-RET-BaF3, KIF5B-RET-BaF3 indicates better targeting.
The specific test method is given as follows:
1) Medium: DMEM (Dulbecco's modified eagle medium) or RPMI 1640 (containing 10% fetal bovine serum, 100 μg/mL ampicillin, 100 μg/mL streptomycin).
2) Reagents: MTS reaction solution (containing 2 mg/mL of MTS [3-(4,5-dimethylthiazol-2-yl)-5-(3-carboxymethoxyphenyl)-2-(4-sulfophenyl)-2H-tetrazolium, inner Salt]; 100 μg/mL PES (phenazine […])).
3) Compound test: cells stably transfected with kinase (CCDC6-RET-BaF3, KIF5B-RET-BaF3) or wild-type BaF3 cells (2×10^4 cells/well) were incubated into a 96-well culture plate, the volume of cell culture fluid was 90 μL, and then 10 μL of the compound at each gradient concentration was added (the highest concentration was 10 μM, which was diluted stepwise by ⅓, and 8 concentration points were set in total; the system contained 0.1% DMSO (dimethyl sulfoxide)). The cell plate with uniformly mixed compound was cultured in a cell culture incubator (37° C.; 5% CO2) for 48 h, then 20 μL of MTS reaction solution was added, uniformly mixed and incubated in the cell culture incubator (37° C.; 5% CO2) for 1-4 hr, OD values at 490 nm were measured by a microplate reader (VARIOSKAN FLASH, Thermo). Three parallels were set in each group of experiments, with 0.1% (a final concentration) DMSO as a negative control, and a medium without cells or compounds as a blank control. The cell growth inhibition rate was calculated by the following formula: Cell growth inhibition rate %=1−(ODexperimental group−ODblank group)/(ODnegative group−ODblank group)×100%
4) IC50 calculation: The semi-inhibitory concentration of the compound acting on cell growth was calculated using GradPad Prism 5 software according to the measured cell growth inhibition rate.

T1 sequence (P07949 whole entry, change not shown, the tested form may be a part): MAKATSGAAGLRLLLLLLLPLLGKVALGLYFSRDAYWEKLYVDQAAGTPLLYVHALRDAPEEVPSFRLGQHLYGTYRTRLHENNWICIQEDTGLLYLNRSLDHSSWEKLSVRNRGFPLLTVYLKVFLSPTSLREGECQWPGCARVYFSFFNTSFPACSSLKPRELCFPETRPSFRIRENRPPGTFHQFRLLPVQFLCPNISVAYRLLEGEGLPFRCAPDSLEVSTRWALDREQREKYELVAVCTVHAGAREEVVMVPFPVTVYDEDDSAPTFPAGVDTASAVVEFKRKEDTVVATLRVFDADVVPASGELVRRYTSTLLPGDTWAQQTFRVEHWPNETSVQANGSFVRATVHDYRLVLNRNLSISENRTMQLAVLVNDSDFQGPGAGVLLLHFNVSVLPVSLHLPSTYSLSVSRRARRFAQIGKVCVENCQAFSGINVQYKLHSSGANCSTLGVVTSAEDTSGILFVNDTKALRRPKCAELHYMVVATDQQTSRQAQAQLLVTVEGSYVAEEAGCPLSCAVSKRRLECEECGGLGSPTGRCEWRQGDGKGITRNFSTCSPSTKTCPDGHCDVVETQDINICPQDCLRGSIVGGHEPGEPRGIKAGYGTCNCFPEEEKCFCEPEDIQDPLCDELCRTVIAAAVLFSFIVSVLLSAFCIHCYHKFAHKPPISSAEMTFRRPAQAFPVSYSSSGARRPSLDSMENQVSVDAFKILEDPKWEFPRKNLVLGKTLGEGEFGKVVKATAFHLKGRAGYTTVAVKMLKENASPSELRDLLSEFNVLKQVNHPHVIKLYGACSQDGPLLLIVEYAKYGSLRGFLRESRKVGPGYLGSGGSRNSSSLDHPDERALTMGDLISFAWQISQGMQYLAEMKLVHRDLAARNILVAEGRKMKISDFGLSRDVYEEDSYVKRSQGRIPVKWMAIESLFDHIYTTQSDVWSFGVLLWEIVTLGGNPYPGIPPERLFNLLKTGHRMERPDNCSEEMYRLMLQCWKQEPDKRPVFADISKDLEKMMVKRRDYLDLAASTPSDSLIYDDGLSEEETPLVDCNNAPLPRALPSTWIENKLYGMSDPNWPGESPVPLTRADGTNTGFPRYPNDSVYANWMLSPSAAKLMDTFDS
T2 sequence (P07949 whole entry, change not shown, the tested form may be a part): as above

**Q.** For `Cc1ccc(Oc2nc(-c3ccoc3)nc3cc[nH]c23)cc1NC(=O)c1ccc(CN2CCN(C)CC2)c(C(F)(F)F)c1` [III-j-9], which GI50 [1] is on record?
**A.** 97.6 nM

**Q.** And the GI50 [2]?
**A.** 464 nM

**Q.** What about the IC50 [3] of the same compound?
**A.** 4260 nM

**Q.** What does the source list for `Cc1ccc(Oc2nc(-c3ccoc3)nc3ccn(C)c23)cc1NC(=O)c1ccc(CN2CCN(C)CC2)c(C(F)(F)F)c1` [III-j-10]?
**A.** GI50 [1]: 234 nM; GI50 [2]: 428 nM; IC50 [3]: 1460 nM

**Q.** How did the GI50 [1] turn out when `Cc1ccc(Oc2nc(-c3ccc(Cl)cc3)nc3cc[nH]c23)cc1NC(=O)c1ccc(CN2CCN(C)CC2)c(C(F)(F)F)c1` [III-j-11] was run?
**A.** 1530 nM

**Q.** What about the GI50 [2] of the same compound?
**A.** 1570 nM

**Q.** And the IC50 [3]?
**A.** 1360 nM

**Q.** Which results are given for `Cc1ccc(Oc2nc(-c3ccc(Cl)cc3)nc3ccn(C)c23)cc1NC(=O)c1ccc(CN2CCN(C)CC2)c(C(F)(F)F)c1` [III-j-12]?
**A.** GI50 [1]: 2660 nM; GI50 [2]: 2970 nM; IC50 [3]: 2150 nM

**Q.** Which results are given for `Cc1ccc(Oc2nc(-c3ccc(O)cc3)nc3cc[nH]c23)cc1NC(=O)c1ccc(CN2CCN(C)CC2)c(C(F)(F)F)c1` [III-j-13]?
**A.** GI50 [1]: 1720 nM; GI50 [2]: 2400 nM; IC50 [3]: 4150 nM

**Q.** Which GI50 [1] does the source give for `Cc1ccc(Oc2nc(-c3ccc(O)cc3)nc3ccn(C)c23)cc1NC(=O)c1ccc(CN2CCN(C)CC2)c(C(F)(F)F)c1` [III-j-14] here?
**A.** 876 nM

**Q.** What about the GI50 [2] of the same compound?
**A.** 1380 nM

**Q.** And the IC50 [3]?
**A.** 1340 nM

**Q.** For `Cc1ccc(Oc2nc(-c3ccc(N)cc3)nc3cc[nH]c23)cc1NC(=O)c1ccc(CN2CCN(C)CC2)c(C(F)(F)F)c1` [III-j-15], which GI50 [1] is on record?
**A.** 745 nM

**Q.** And the GI50 [2]?
**A.** 620 nM

**Q.** And the IC50 [3]?
**A.** 1200 nM

**Q.** `Cc1ccc(Oc2nc(-c3ccc(N)cc3)nc3ccn(C)c23)cc1NC(=O)c1ccc(CN2CCN(C)CC2)c(C(F)(F)F)c1` [III-j-16] was tested. Which GI50 [1] did it give?
**A.** 2040 nM

**Q.** And the GI50 [2]?
**A.** 1470 nM

**Q.** And the IC50 [3]?
**A.** 2280 nM

**Q.** Which results are given for `Cc1ccc(Oc2ncnc3ccn(C)c23)cc1NC(=O)c1ccc(CN2CCN(C)CC2)c(C(F)(F)F)c1` [III-j-18]?
**A.** GI50 [1]: 477 nM; GI50 [2]: 1350 nM; IC50 [3]: > 10000 nM

**Q.** `CN1CCN(Cc2ccc(C(=O)Nc3cc(Oc4nc(-c5cccnc5)nc5cc[nH]c45)ccc3Cl)cc2C(F)(F)F)CC1` [III-k-1] was tested. Which GI50 [1] did it give?
**A.** 1860 nM

**Q.** What about the GI50 [2] of the same compound?
**A.** 1320 nM

**Q.** And the IC50 [3]?
**A.** 4160 nM

**Q.** How did the GI50 [1] turn out when `CN1CCN(Cc2ccc(C(=O)Nc3cc(Oc4nc(-c5ccncc5)nc5cc[nH]c45)ccc3Cl)cc2C(F)(F)F)CC1` [III-k-2] was run?
**A.** 0.79 nM

**Q.** And the GI50 [2]?
**A.** 17.2 nM

**Q.** And the IC50 [3]?
**A.** 1340 nM

**Q.** Which GI50 [1] does the source give for `CN1CCN(Cc2ccc(C(=O)Nc3cc(Oc4nc(-c5cccnc5)nc5ccn(C)c45)ccc3Cl)cc2C(F)(F)F)CC1` [III-k-3] here?
**A.** 1250 nM

**Q.** What about the GI50 [2] of the same compound?
**A.** 1190 nM

**Q.** And the IC50 [3]?
**A.** 1170 nM

**Q.** `CN1CCN(Cc2ccc(C(=O)Nc3cc(Oc4nc(-c5ccncc5)nc5ccn(C)c45)ccc3Cl)cc2C(F)(F)F)CC1` [III-k-4] was tested. Which GI50 [1] did it give?
**A.** 11.2 nM

**Q.** And the GI50 [2]?
**A.** 70.7 nM

**Q.** What about the IC50 [3] of the same compound?
**A.** 1620 nM

**Q.** Which results are given for `CN1CCN(Cc2ccc(C(=O)Nc3cc(Oc4nc(-c5ccoc5)nc5cc[nH]c45)ccc3Cl)cc2C(F)(F)F)CC1` [III-k-5]?
**A.** GI50 [1]: 1490 nM; GI50 [2]: 1920 nM; IC50 [3]: 4360 nM

**Q.** With `CN1CCN(Cc2ccc(C(=O)Nc3cc(Oc4nc(-c5ccoc5)nc5ccn(C)c45)ccc3Cl)cc2C(F)(F)F)CC1` [III-k-6] as the compound, how does the GI50 [1] read?
**A.** 990 nM

**Q.** And the GI50 [2]?
**A.** 1010 nM

**Q.** And the IC50 [3]?
**A.** 2470 nM

**Q.** With `CN1CCN(Cc2ccc(C(=O)Nc3cc(Oc4nc(-c5ccsc5)nc5cc[nH]c45)ccc3Cl)cc2C(F)(F)F)CC1` [III-k-7] as the compound, how does the GI50 [1] read?
**A.** 2960 nM

**Q.** What about the GI50 [2] of the same compound?
**A.** 1900 nM

**Q.** What about the IC50 [3] of the same compound?
**A.** 3720 nM

**Q.** Which results are given for `CN1CCN(Cc2ccc(C(=O)Nc3cc(Oc4nc(-c5ccsc5)nc5ccn(C)c45)ccc3Cl)cc2C(F)(F)F)CC1` [III-k-8]?
**A.** GI50 [1]: 3460 nM; GI50 [2]: 3580 nM; IC50 [3]: 3990 nM

**Q.** How did the GI50 [1] turn out when `CN1CCN(Cc2ccc(C(=O)Nc3cc(Oc4nc(-c5ccc(O)cc5)nc5cc[nH]c45)ccc3Cl)cc2C(F)(F)F)CC1` [III-k-9] was run?
**A.** 1190 nM

**Q.** What about the GI50 [2] of the same compound?
**A.** 1490 nM

**Q.** And the IC50 [3]?
**A.** 1650 nM

**Q.** Which results are given for `CN1CCN(Cc2ccc(C(=O)Nc3cc(Oc4nc(-c5ccc(O)cc5)nc5ccn(C)c45)ccc3Cl)cc2C(F)(F)F)CC1` [III-k-10]?
**A.** GI50 [1]: 2300 nM; GI50 [2]: 2440 nM; IC50 [3]: 1440 nM
